Test results: patent US9340590B2 (priority 2011, dated 2016)
Where two headings read alike, the source gives them in different places. Positions of bridges follow the written chain, without caps; N, C: chain ends. Residues, ends and D or L forms follow the SMILES beside them. *: point of attachment. Biotin = O=C1N[C@H]2[C@H](CS[C@H]2CCCCC(=O)*)N1

Columns and labels:
Test in all cases: cell-based
[1] = molecular target: T1, hNav1.7 (Homo sapiens, UniProt Q15858); conditions: for IC50: Nav1.7 Use IC50
[2] = molecular target: T2, hNav1.5 (Homo sapiens, UniProt Q14524)
[3] = molecular target: T3, hNav1.4 (Homo sapiens, UniProt P35499)
[4] = molecular target: T1, hNav1.7; type: cell-based; conditions: for IC50: IonWorks Quattro, use-dependent block, hNav1.7, read-out: IWQ Use Nav1.7; for Nav1.7/Nav1.3: ratio of IWQ Use values, Nav1.7 over Nav1.3
[5] = molecular target: T3, hNav1.4; conditions: IonWorks Quattro, use-dependent block, hNav1.4; read-out: IWQ Use Nav1.4
[6] = molecular target: T2, hNav1.5; conditions: IonWorks Quattro, use-dependent block, hNav1.5; read-out: IWQ Use Nav1.5
[7] = molecular target: hNav1.3 (Homo sapiens, UniProt Q9NY46); conditions: IonWorks Quattro, use-dependent block, hNav1.3; read-out: IWQ Use Nav1.3
hNav1.3, sequence (Q9NY46 whole entry, looked up): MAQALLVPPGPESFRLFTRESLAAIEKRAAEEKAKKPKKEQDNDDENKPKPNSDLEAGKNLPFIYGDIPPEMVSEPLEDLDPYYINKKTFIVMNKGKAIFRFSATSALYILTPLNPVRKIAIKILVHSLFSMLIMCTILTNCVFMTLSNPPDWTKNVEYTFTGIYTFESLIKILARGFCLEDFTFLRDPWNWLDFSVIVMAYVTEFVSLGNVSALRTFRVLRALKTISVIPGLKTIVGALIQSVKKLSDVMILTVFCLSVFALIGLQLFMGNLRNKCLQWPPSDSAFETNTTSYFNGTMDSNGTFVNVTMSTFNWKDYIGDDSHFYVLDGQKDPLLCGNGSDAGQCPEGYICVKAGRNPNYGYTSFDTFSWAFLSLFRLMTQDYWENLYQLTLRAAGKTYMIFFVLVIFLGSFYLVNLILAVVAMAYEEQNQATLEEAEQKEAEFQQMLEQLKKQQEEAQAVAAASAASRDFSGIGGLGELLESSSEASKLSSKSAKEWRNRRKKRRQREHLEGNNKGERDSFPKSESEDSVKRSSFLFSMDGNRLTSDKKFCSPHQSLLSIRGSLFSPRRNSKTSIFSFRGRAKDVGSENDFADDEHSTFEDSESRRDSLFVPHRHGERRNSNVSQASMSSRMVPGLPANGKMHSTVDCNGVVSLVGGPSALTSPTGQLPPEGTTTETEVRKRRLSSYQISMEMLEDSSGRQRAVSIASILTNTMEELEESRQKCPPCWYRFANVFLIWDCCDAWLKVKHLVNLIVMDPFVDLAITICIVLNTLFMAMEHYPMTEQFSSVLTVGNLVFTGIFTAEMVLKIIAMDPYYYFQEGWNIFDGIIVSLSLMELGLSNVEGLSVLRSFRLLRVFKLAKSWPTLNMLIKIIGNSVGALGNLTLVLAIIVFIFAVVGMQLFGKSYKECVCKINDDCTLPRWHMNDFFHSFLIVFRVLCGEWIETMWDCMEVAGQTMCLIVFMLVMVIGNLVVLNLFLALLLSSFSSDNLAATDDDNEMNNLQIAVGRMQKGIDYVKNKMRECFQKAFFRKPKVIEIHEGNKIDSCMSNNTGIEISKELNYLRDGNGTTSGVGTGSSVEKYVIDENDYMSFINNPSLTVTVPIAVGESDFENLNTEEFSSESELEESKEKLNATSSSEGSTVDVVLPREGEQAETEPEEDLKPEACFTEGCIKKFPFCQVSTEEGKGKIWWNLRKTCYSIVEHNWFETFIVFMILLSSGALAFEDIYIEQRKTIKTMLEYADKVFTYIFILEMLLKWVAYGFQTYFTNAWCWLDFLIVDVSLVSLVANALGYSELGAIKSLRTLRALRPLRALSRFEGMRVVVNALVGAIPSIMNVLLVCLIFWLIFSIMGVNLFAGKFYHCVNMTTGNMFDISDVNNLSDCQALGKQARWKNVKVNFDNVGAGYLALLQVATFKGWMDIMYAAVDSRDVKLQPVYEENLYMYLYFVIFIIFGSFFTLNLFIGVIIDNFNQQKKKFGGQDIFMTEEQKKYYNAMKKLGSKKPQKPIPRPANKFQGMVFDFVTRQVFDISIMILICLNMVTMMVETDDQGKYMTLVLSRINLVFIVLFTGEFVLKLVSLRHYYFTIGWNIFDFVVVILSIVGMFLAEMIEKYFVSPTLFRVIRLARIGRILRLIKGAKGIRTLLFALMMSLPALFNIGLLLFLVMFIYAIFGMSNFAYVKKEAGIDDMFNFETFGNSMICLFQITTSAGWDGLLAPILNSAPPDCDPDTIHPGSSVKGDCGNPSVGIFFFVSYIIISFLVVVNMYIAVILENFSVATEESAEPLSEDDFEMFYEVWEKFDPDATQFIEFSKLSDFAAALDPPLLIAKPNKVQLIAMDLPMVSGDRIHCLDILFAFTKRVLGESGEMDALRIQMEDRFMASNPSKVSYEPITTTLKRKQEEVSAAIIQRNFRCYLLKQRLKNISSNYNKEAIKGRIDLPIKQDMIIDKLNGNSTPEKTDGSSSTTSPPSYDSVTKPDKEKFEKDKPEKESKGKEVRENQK

T2 sequence (Q14524 whole entry, looked up): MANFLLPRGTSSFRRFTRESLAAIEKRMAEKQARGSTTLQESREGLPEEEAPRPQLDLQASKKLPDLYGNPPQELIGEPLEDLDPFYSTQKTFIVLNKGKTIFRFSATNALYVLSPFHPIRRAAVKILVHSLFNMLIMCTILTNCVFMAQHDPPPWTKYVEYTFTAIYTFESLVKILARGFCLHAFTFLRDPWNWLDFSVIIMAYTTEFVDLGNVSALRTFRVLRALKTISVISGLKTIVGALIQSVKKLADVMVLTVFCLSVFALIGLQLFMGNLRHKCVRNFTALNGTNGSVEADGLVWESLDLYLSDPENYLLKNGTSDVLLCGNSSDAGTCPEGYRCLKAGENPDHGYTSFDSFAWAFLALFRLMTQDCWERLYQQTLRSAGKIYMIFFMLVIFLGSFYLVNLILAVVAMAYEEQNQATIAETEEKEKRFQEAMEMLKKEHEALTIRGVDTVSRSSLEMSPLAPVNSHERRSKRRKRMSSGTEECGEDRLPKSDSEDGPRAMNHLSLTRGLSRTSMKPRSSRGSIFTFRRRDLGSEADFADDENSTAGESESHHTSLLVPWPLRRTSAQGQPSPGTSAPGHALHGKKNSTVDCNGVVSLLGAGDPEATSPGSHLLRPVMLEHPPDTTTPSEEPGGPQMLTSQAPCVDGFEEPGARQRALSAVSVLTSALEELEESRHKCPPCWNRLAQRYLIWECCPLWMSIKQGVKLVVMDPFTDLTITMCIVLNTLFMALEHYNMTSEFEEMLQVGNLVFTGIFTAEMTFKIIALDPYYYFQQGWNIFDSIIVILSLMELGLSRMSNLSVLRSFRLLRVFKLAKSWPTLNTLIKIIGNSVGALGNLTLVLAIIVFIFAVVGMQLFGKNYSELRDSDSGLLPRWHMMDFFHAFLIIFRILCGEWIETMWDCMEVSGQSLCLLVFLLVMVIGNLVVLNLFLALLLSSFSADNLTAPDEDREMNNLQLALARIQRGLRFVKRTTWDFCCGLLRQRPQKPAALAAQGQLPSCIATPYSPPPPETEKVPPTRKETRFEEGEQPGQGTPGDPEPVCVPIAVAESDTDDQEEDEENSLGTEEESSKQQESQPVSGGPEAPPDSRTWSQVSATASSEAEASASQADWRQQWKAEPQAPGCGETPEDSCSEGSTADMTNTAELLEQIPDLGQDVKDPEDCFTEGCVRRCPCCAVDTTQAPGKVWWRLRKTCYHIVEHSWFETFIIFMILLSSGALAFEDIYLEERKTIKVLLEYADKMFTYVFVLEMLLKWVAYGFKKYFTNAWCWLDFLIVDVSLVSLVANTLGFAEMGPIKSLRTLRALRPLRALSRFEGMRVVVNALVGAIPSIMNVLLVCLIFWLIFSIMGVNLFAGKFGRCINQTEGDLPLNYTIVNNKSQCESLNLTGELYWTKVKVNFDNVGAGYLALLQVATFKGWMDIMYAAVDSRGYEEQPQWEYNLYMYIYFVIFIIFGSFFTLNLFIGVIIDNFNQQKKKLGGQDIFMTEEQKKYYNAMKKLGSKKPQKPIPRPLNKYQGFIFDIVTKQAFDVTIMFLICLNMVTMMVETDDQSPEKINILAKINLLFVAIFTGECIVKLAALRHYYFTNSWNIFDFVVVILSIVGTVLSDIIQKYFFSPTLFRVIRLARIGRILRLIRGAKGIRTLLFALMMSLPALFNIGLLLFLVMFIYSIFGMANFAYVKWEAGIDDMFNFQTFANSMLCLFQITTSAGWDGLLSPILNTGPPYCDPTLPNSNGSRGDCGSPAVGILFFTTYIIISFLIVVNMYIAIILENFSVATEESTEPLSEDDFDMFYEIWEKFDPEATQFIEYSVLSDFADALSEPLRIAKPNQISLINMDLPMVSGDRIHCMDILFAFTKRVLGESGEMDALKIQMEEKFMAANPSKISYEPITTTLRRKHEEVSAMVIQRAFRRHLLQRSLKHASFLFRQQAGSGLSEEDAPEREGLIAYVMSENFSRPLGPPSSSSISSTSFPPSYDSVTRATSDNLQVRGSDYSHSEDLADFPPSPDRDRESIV

Compound | Nav1.4/Nav1.7 Use [1] | Nav1.5/Nav1.7 Use [1] | IC50 [1] [nM] | IC50 [2] [µM] | IC50 ([3]; Nav1.4 Use IC50) [µM] | IC50 [4] [µM] | IC50 [5] [µM] | IC50 [6] [µM] | IC50 [7] [µM] | Nav1.7/Nav1.3 [4] | IC50 ([2]; read-out: Nav1.5 Use IC50) [µM] | IC50 ([3]; read-out: Nav1.4 Use IC50) [µM]
CC[C@H](C)[C@@H]1NC(=O)[C@@H]2CSSC[C@@H]3NC(=O)[C@H](C(C)C)NC(=O)[C@H](CC(C)C)NC(=O)[C@H](CC(N)=O)NC(=O)[C@@H]4CCCN4C(=O)[C@H](CCCNC(=N)N)NC(=O)[C@H](CSSC[C@H](NC(=O)[C@@H](N)CC(=O)O)C(=O)N[C@@H](CC(C)C)C(=O)NCC(=O)N[C@@H](C)C(=O)N[C@@H](CC(C)C)C(=O)N[C@@H](CCCNC(=N)N)C(=O)N[C@@H](CCCCN)C(=O)N2)NC(=O)[C@H](CSSC[C@@H](C(=O)N[C@@H](CCCCN)C(=O)N[C@@H](Cc2ccc(O)cc2)C(=O)N[C@H](C(=O)N[C@@H](Cc2ccccc2)C(N)=O)C(C)C)NC(=O)[C@H](Cc2c[nH]c4ccccc24)NC(=O)[C@H](CCCNC(=N)N)NC(=O)[C@H](Cc2c[nH]cn2)NC(=O)[C@H](CC(C)C)NC(=O)[C@H](CCCNC(=N)N)NC(=O)[C@H](CO)NC3=O)NC(=O)[C@H](CCCCN)NC(=O)[C@H](CC(=O)O)NC(=O)[C@H](Cc2cn(CCOCCOCCOCCOCCOCCOCCOCCOCCOCCOCCOCCNC(=O)CSCCO)nn2)NC(=O)[C@H](CC(=O)O)NC(=O)[C@@H]2CCCN2C1=O | >476 | >476 | 21 | > 10 | > 10 |  |  |  |  |  |  | 
CC(C)C[C@@H]1NC(=O)[C@H](C)NC(=O)CNC(=O)[C@H](CC(C)C)NC(=O)[C@@H](NC(=O)[C@@H](N)CC(=O)O)CSSC[C@@H]2NC(=O)[C@@H]3CSSC[C@@H](C(=O)N[C@@H](CCCCN)C(=O)N[C@@H](Cc4ccc(O)cc4)C(=O)N[C@H](C(=O)N[C@@H](Cc4ccccc4)C(N)=O)C(C)C)NC(=O)[C@H](Cc4c[nH]c5ccccc45)NC(=O)[C@H](CCCNC(=N)N)NC(=O)[C@H](Cc4c[nH]cn4)NC(=O)[C@H](CC(C)C)NC(=O)[C@H](CCCNC(=N)N)NC(=O)[C@H](CO)NC(=O)[C@H](CSSC[C@H](NC(=O)[C@H](CCCCN)NC(=O)[C@H](CCCNC(=N)N)NC1=O)C(=O)N[C@@H](CCC(=O)O)C(=O)N1CCC[C@H]1C(=O)N[C@@H](CC(=O)O)C(=O)N[C@@H](Cc1cn(CCOCCOCCOCCOCCOCCOCCOCCOCCOCCOCCOCCNC(=O)CSCCO)nn1)C(=O)N[C@@H](CC(=O)O)C(=O)N[C@@H](CCCCN)C(=O)N3)NC(=O)[C@H](C(C)C)NC(=O)[C@H](CC(C)C)NC(=O)[C@H](CC(N)=O)NC(=O)[C@@H]1CCCN1C(=O)[C@H](CCCNC(=N)N)NC2=O | >185 | >185 | 54 | > 10 | > 10 |  |  |  |  |  |  | 
CC(C)C[C@@H]1NC(=O)[C@@H](NC(=O)[C@@H](N)CC(=O)O)CSSC[C@@H]2NC(=O)[C@@H]3CSSC[C@@H](C(=O)N[C@@H](CCCCN)C(=O)N[C@@H](Cc4ccc(O)cc4)C(=O)N[C@H](C(=O)N[C@@H](Cc4ccccc4)C(N)=O)C(C)C)NC(=O)[C@H](Cc4c[nH]c5ccccc45)NC(=O)[C@H](CCCNC(=N)N)NC(=O)[C@H](Cc4c[nH]cn4)NC(=O)[C@H](CC(C)C)NC(=O)[C@H](CCCNC(=N)N)NC(=O)[C@H](CO)NC(=O)[C@H](CSSC[C@H](NC(=O)[C@H](CCCCN)NC(=O)[C@H](CCCNC(=N)N)NC(=O)[C@H](Cc4ccccc4)NC(=O)[C@H](C)NC(=O)CNC1=O)C(=O)N[C@@H](CCC(=O)O)C(=O)N1CCC[C@H]1C(=O)N[C@@H](CC(=O)O)C(=O)N[C@@H](Cc1cn(CCOCCOCCOCCOCCOCCOCCOCCOCCOCCOCCOCCNC(=O)CSCCO)nn1)C(=O)N[C@@H](CC(=O)O)C(=O)N[C@@H](CCCCN)C(=O)N3)NC(=O)[C@H](C(C)C)NC(=O)[C@H](CC(C)C)NC(=O)[C@H](CC(N)=O)NC(=O)[C@@H]1CCCN1C(=O)[C@H](CCCNC(=N)N)NC2=O | >476 | >476 | 21 | > 10 | > 10 |  |  |  |  |  |  | 
CC(C)C[C@@H]1NC(=O)[C@@H](NC(=O)[C@@H](N)CC(=O)O)CSSC[C@@H]2NC(=O)[C@@H]3CSSC[C@@H](C(=O)N[C@@H](CCCCN)C(=O)N[C@@H](Cc4ccc(O)cc4)C(=O)N[C@H](C(=O)N[C@@H](Cc4ccccc4)C(N)=O)C(C)C)NC(=O)[C@H](Cc4c[nH]c5ccccc45)NC(=O)[C@H](CCCNC(=N)N)NC(=O)[C@H](Cc4c[nH]cn4)NC(=O)[C@H](CC(C)C)NC(=O)[C@H](CCCNC(=N)N)NC(=O)[C@H](CO)NC(=O)[C@H](CSSC[C@H](NC(=O)[C@H](CCCCN)NC(=O)[C@H](CCCNC(=N)N)NC(=O)[C@H](Cc4ccccc4)NC(=O)[C@H](C)NC(=O)CNC1=O)C(=O)N[C@@H](CCC(=O)O)C(=O)N1CCC[C@H]1C(=O)N[C@@H](CC(=O)O)C(=O)N[C@@H](CCCCNC(=O)CCCC[C@@H]1SC[C@@H]4NC(=O)N[C@@H]41)C(=O)N[C@@H](CC(=O)O)C(=O)N[C@@H](CCCCN)C(=O)N3)NC(=O)[C@H](C(C)C)NC(=O)[C@H](CC(C)C)NC(=O)[C@H](CC(N)=O)NC(=O)[C@@H]1CCCN1C(=O)[C@H](CCCNC(=N)N)NC2=O (H-DCLGAFRKCEPDK(Biotin)DKCCRPNLVCSRLHRWCKYVF-NH2; disulfide 2-17, 9-23, 16-30) | 475 | >667 | 15 | > 10 | 7.13 |  |  |  |  |  |  | 
CC[C@H](C)[C@@H]1NC(=O)[C@@H]2CSSC[C@@H]3NC(=O)[C@H](C(C)C)NC(=O)[C@H](CC(C)C)NC(=O)[C@H](CC(N)=O)NC(=O)[C@@H]4CCCN4C(=O)[C@H](CCCNC(=N)N)NC(=O)[C@H](CSSC[C@H](NC(=O)[C@H](CC(=O)O)NC(=O)[C@H](CO)NC(=O)CN)C(=O)N[C@@H](CC(C)C)C(=O)NCC(=O)N[C@@H](C)C(=O)N[C@@H](CC(C)C)C(=O)N[C@@H](CCCNC(=N)N)C(=O)N[C@@H](CCCCN)C(=O)N2)NC(=O)[C@H](CSSC[C@@H](C(=O)N[C@@H](CCCCN)C(=O)N[C@@H](Cc2ccc(O)cc2)C(=O)N[C@H](C(=O)N[C@@H](Cc2ccccc2)C(=O)N[C@@H](Cc2c[nH]c4ccccc24)C(=O)O)C(C)C)NC(=O)[C@H](Cc2c[nH]c4ccccc24)NC(=O)[C@H](CCCNC(=N)N)NC(=O)[C@H](Cc2c[nH]cn2)NC(=O)[C@H]([C@@H](C)O)NC(=O)[C@H](CCCNC(=N)N)NC(=O)[C@H](CO)NC3=O)NC(=O)[C@H](CCCCN)NC(=O)[C@H](CC(=O)O)NC(=O)[C@H](CC(N)=O)NC(=O)[C@H](CC(=O)O)NC(=O)[C@@H]2CCCN2C1=O [compound 816] (H-GSDCLGALRKCIPDNDKCCRPNLVCSRTHRWCKYVFW-OH; disulfide 4-19, 11-25, 18-32) |  |  |  |  |  | > 5 | > 5 | > 5 | > 5 |  |  | 
CC[C@H](C)[C@@H]1NC(=O)[C@@H]2CSSC[C@@H]3NC(=O)[C@H](C(C)C)NC(=O)[C@H](CC(C)C)NC(=O)[C@H](CC(N)=O)NC(=O)[C@@H]4CCCN4C(=O)[C@H](CCCNC(=N)N)NC(=O)[C@H](CSSC[C@H](NC(=O)[C@H](CC(=O)O)NC(=O)[C@H](CO)NC(=O)CN)C(=O)N[C@@H](CC(C)C)C(=O)NCC(=O)N[C@@H](C)C(=O)N[C@@H](CC(C)C)C(=O)N[C@@H](CCCNC(=N)N)C(=O)N[C@@H](CCCCN)C(=O)N2)NC(=O)[C@H](CSSC[C@@H](C(=O)N[C@@H](CCCCN)C(=O)N[C@@H](Cc2ccc(O)cc2)C(=O)N[C@H](C(=O)N[C@@H](Cc2ccccc2)C(=O)N[C@@H](Cc2ccccc2)C(=O)O)C(C)C)NC(=O)[C@H](Cc2c[nH]c4ccccc24)NC(=O)[C@H](CCCNC(=N)N)NC(=O)[C@H](Cc2c[nH]cn2)NC(=O)[C@H]([C@@H](C)O)NC(=O)[C@H](CCCNC(=N)N)NC(=O)[C@H](CO)NC3=O)NC(=O)[C@H](CCCCN)NC(=O)[C@H](CC(=O)O)NC(=O)[C@H](CC(N)=O)NC(=O)[C@H](CC(=O)O)NC(=O)[C@@H]2CCCN2C1=O [compound 820] (H-GSDCLGALRKCIPDNDKCCRPNLVCSRTHRWCKYVFF-OH; disulfide 4-19, 11-25, 18-32) |  |  |  |  |  | 0.5 | > 5 | > 5 | 0.5 | 1.0 |  | 
CC[C@H](C)[C@@H]1NC(=O)[C@@H]2CSSC[C@@H]3NC(=O)[C@H](C(C)C)NC(=O)[C@H](CC(C)C)NC(=O)[C@H](CC(N)=O)NC(=O)[C@@H]4CCCN4C(=O)[C@H](CCCNC(=N)N)NC(=O)[C@H](CSSC[C@H](NC(=O)[C@H](CC(=O)O)NC(=O)[C@H](CO)NC(=O)CN)C(=O)N[C@@H](CC(C)C)C(=O)NCC(=O)N[C@@H](C)C(=O)N[C@@H](CC(C)C)C(=O)N[C@@H](CCCNC(=N)N)C(=O)N[C@@H](CCCCN)C(=O)N2)NC(=O)[C@H](CSSC[C@@H](C(=O)N[C@@H](CCCCN)C(=O)N[C@@H](Cc2ccc(O)cc2)C(=O)N[C@H](C(=O)N[C@@H](Cc2ccccc2)C(=O)O)C(C)C)NC(=O)[C@H](Cc2c[nH]c4ccccc24)NC(=O)[C@H](CCCNC(=N)N)NC(=O)[C@H](Cc2c[nH]cn2)NC(=O)[C@H]([C@@H](C)O)NC(=O)[C@H](CCCNC(=N)N)NC(=O)[C@H](CO)NC3=O)NC(=O)[C@H](CCCCN)NC(=O)[C@H](CC(=O)O)NC(=O)[C@H](CC(N)=O)NC(=O)[C@H](CC(=O)O)NC(=O)[C@@H]2CCCN2C1=O [compound 822] (H-GSDCLGALRKCIPDNDKCCRPNLVCSRTHRWCKYVF-OH; disulfide 4-19, 11-25, 18-32) |  |  |  |  |  | 3.7 | > 5 | > 5 | 3.7 | 1.0 |  | 
Biotin-Ahx-[Ala5,Phe6,Atz(2 kDa EtO-PEG*-{Biotin-Ahx-[Ala5,Phe6,Atz13*,Leu26,Arg28]GpTx-1(1-34)})13,Leu26,Arg28]GpTx-1(1-34) [Homodimeric Conjugate 4] |  |  |  |  |  |  |  |  |  |  | > 10 | 3.43
